# In patent US8440837B2, “2-substituted-ethynylthiazole derivatives and uses of same” (H. Lundbeck A/S, priority 2009, dated 2013):
# Biological target: human metabotropic glutamate receptor 5 (hmGluR5) (UniProt P31424)
# Assay: Calcium mobilization (FLIPR) assay, positive allosteric modulation of the EC20 glutamate response
# Type: cell-based
# Conditions: HEK 293 cells; for maximum modulation (Emax): EC20 glutamate response; for EC50: increase in EC20 glutamate response
# Procedure: The cDNA for human metabotropic glutamate receptor 5 (hmGluR5) was a generous gift from S. Nakanishi (Kyoto University, Kyoto, Japan). The […] was stably expressed in a HEK 293 cell line and grown in Dulbecco's Modified Eagle Medium (DMEM) (Invitrogen, Carlsbad, Calif.) with supplements (10% bovine calf serum, 4 mM glutamine, 100 units/mL penicillin, 100 μg/mL streptomycin and […]) at 37° C., 5% CO2. Twenty-four hours prior to assay, cells were seeded into 384-well black wall microtiter plates coated with poly-D-lysine. Just prior to assay, media was aspirated and cells dye-loaded (25 μL/well) with 3 μM Fluo-4/0.01% pluronic acid in assay buffer (Hank's Balanced Saline Solution (HBSS)): 150 mM NaCl, 5 mM KCl, 1 mM CaCl2, 1 mM MgCl2, plus 20 mM N-2-Hydroxyethylpiperazine-N′-2-ethanesulfonic acid (HEPES), pH 7.4, 0.1% bovine serum albumin (BSA) and 2.5 mM probenicid) for 1 hour in 5% CO2 at 37° C. After excess dye was discarded, cells were washed in assay buffer and layered with a final volume equal to 30 μL/well. Basal fluorescence is monitored in a fluorometric imaging plate reader (FLIPR) (Molecular Devices, Sunnyvale, Calif.) with an excitation wavelength of 488 nm and an emission range of 500 to 560 nm. Laser excitation energy was adjusted so that basal fluorescence readings were approximately 10,000 relative fluorescent units. Cells were stimulated with an EC20 or an EC80 concentration of glutamate in the presence of a compound to be tested, both diluted in assay buffer, and relative fluorescent units were measured at defined intervals (exposure=0.6 sec) over a 3 min period at room temperature. Basal readings derived from negative controls were subtracted from all samples. Maximum change in fluorescence was calculated for each well. Concentration-response curves derived from the maximum change in fluorescence were analyzed by nonlinear regression (Hill equation).
# A silent allosteric modulator (SAM) can be identified by using a combination of both the calcium mobilization assay data and the radioligand binding data. As used herein, the term “silent allosteric modulator” refers to a ligand that binds to an allosteric site of the receptor but has no measurable intrinsic efficacy.
smiles,measurement,value
"CC(=O)c1cnc(C#Cc2ccccc2)s1 [Example 239, 1-(2-Phenylethynyl-thiazol-5-yl)-ethanone]",maximum modulation (Emax),170%
same,EC50,190 nM
"O=C(c1cnc(C#Cc2cccnc2)s1)N1CCCCC1 [Example 188, Piperidin-1-yl-(2-pyridin-3-ylethynyl-thiazol-5-yl)-methanone]",maximum modulation (Emax),95%
same,EC50,6200 nM
"CN1CCN(C(=O)c2cnc(C#Cc3ccccc3)s2)CC1 [Example 42, (4-Methyl-piperazin-1-yl)-(2-phenylethynyl-thiazol-5-yl)-methanone]",maximum modulation (Emax),160%
same,EC50,530 nM
"O=C(c1cnc(C#Cc2ccccc2)s1)N1CCC(C(F)(F)F)CC1 [Example 111, (2-Phenylethynyl-thiazol-5-yl)-(4-trifluoromethyl-piperidin-1-yl)-methanone]",maximum modulation (Emax),130%
same,EC50,64 nM
"O=C(c1cnc(C#Cc2ccccc2)s1)N1CCCCCC1 [Example 58, Azepan-1-yl-(2-phenylethynyl-thiazol-5-yl)-methanone]",maximum modulation (Emax),79%
same,EC50,5.2 nM
"O=C(c1cnc(C#Cc2cccc(Cl)c2)s1)N1CCC(O)CC1 [Example 38, [2-(3-Chloro-phenylethynyl)-thiazol-5-yl]-(4-hydroxy-piperidin-1-yl)-methanone]",maximum modulation (Emax),42%
same,EC50,12 nM
"O=C1CCN(C(=O)c2cnc(C#Cc3ccccc3)s2)C1 [Example 140, 1-(2-Phenylethynyl-thiazole-5-carbonyl)-pyrrolidin-3-one]",maximum modulation (Emax),110%
same,EC50,110 nM
"O=C(c1cnc(C#CC2CCCCC2)s1)N1CCCCC1 [Example 200, (2-Cyclohexylethynyl-thiazol-5-yl)-piperidin-1-yl-methanone]",maximum modulation (Emax),160%
same,EC50,510 nM
"O=C(c1cnc(C#Cc2ccccc2)s1)N1CCC(N2CCCC2)C1 (stereo not shown) [Example 141, [1,3]Bipyrrolidinyl-1-yl-(2-phenylethynyl-thiazol-5-yl)-methanone]",EC50,4000 nM
"CC1(O)CCN(C(=O)c2cnc(C#Cc3ccccc3)s2)CC1 [Example 80, (4-Hydroxy-4-methyl-piperidin-1-yl)-(2-phenylethynyl-thiazol-5-yl)-methanone]",maximum modulation (Emax),120%
same,EC50,290 nM
"CCOC1CCN(C(=O)c2cnc(C#Cc3ccccc3)s2)CC1 [Example 122, (4-Ethoxy-piperidin-1-yl)-(2-phenylethynyl-thiazol-5-yl)-methanone]",maximum modulation (Emax),130%
same,EC50,220 nM
"CC1(O)CCCN(C(=O)c2cnc(C#Cc3ccccc3)s2)CC1 (stereo not shown) [Example 151, (4-Hydroxy-4-methyl-azepan-1-yl)-(2-phenylethynyl-thiazol-5-yl)-methanone]",maximum modulation (Emax),61%
same,EC50,73 nM
"OC(c1cnc(C#Cc2ccccc2)s1)C1CCCCC1 (stereo not shown) [Example 235, Cyclohexyl-(2-phenylethynyl-thiazol-5-yl)-methanol]",maximum modulation (Emax),50%
same,EC50,53 nM
"CCN1CCN(C(=O)c2cnc(C#Cc3cccc(Cl)c3)s2)CC1 [Example 159, [2-(3-Chloro-phenylethynyl)-thiazol-5-yl]-(4-ethyl-piperazin-1-yl)-methanone]",maximum modulation (Emax),74%
same,EC50,510 nM
"O=C(c1cnc(C#Cc2ccc(F)cc2)s1)N1CCC(O)CC1 [Example 29, [2-(4-Fluoro-phenylethynyl)-thiazol-5-yl]-(4-hydroxy-piperidin-1-yl)-methanone]",maximum modulation (Emax),100%
same,EC50,2400 nM
"O=C(c1cnc(C#Cc2ccccc2)s1)N1CC2(COC2)C1 [Example 167, (2-Oxa-6-aza-spiro[3.3]hept-6-yl)-(2-phenylethynyl-thiazol-5-yl)-methanone]",maximum modulation (Emax),150%
same,EC50,1900 nM
CC1CCN(C(=O)c2cnc(C#Cc3cccc(F)c3)s2)CC1 [Example 20],maximum modulation (Emax),110%
same,EC50,0.71 nM
"O=C(c1cnc(C#Cc2ccccc2)s1)N1CCN(c2ccccc2)CC1 [Example 41, (2-Phenylethynyl-thiazol-5-yl)-(4-phenyl-piperazin-1-yl)-methanone]",maximum modulation (Emax),52%
same,EC50,360 nM
"O=C(c1cnc(C#Cc2ccsc2)s1)N1CCCCC1 [Example 190, Piperidin-1-yl-(2-thiophen-3-ylethynyl-thiazol-5-yl)-methanone]",maximum modulation (Emax),78%
same,EC50,5.2 nM
"O=C(c1cnc(C#Cc2ccccc2)s1)N1CCC(F)(F)CC1 [Example 82, (4,4-Difluoro-piperidin-1-yl)-(2-phenylethynyl-thiazol-5-yl)-methanone]",maximum modulation (Emax),150%
same,EC50,4.3 nM
"COC1CN(Cc2cnc(C#Cc3ccccc3)s2)C1 [Example 214, 5-(3-Methoxy-azetidin-1-ylmethyl)-2-phenylethynyl-thiazole]",maximum modulation (Emax),120%
same,EC50,760 nM
"Cc1cccc(C#Cc2ncc(C(=O)N3CCC(O)CC3)s2)c1 [Example 25, (4-Hydroxy-piperidin-1-yl)-(2-m-tolylethynyl-thiazol-5-yl)-methanone]",maximum modulation (Emax),50%
same,EC50,55 nM
"N#Cc1cccc(C#Cc2ncc(C(=O)N3CCCCC3)s2)c1 [Example 196, 3-[5-(Piperidine-1-carbonyl)-thiazol-2-ylethynyl]-benzonitrile]",maximum modulation (Emax),45%
same,EC50,12 nM
"O=C(c1cnc(C#Cc2ccccc2)s1)N1CC(N2CCOCC2)C1 [Example 132, (3-Morpholin-4-yl-azetidin-1-yl)-(2-phenylethynyl-thiazol-5-yl)-methanone]",maximum modulation (Emax),40%
same,EC50,230 nM
"O=C(c1cnc(C#Cc2ccccc2)s1)N1CC2CCC1C2 (stereo not shown) [Example 146, (2-Aza-bicyclo[2.2.1]hept-2-yl)-(2-phenylethynyl-thiazol-5-yl)-methanone]",maximum modulation (Emax),69%
same,EC50,8.2 nM
"F[C@@H]1CCN(Cc2cnc(C#Cc3ccccc3)s2)C1 [Example 230, 5-((R)-3-Fluoro-pyrrolidin-1-ylmethyl)-2-phenylethynyl-thiazole]",maximum modulation (Emax),110%
same,EC50,33 nM
"COc1ccc(C#Cc2ncc(C(=O)N3CCCCC3)s2)cc1 [Example 192, [2-(4-Methoxy-phenylethynyl)-thiazol-5-yl]-piperidin-1-yl-methasone]",maximum modulation (Emax),64%
same,EC50,2200 nM
"O=C(c1cnc(C#Cc2ccccc2)s1)N1CCc2[nH]ncc2C1 [Example 77, (2-Phenylethynyl-thiazol-5-yl)-(1,4,6,7-tetrahydro-pyrazolo[4,3-c]pyridin-5-yl)-methanone]",maximum modulation (Emax),120%
same,EC50,100 nM
"O=C(c1cnc(C#Cc2ccccc2)s1)N1CCCC(N2CCOCC2)CC1 (stereo not shown) [Example 148, (4-Morpholin-4-yl-azepan-1-yl)-(2-phenylethynyl-thiazol-5-yl)-methanone]",maximum modulation (Emax),100%
same,EC50,3400 nM
"C(#Cc1ncc(CN2CCCC2)s1)c1ccccc1 [Example 207, 2-Phenylethynyl-5-pyrrolidin-1-ylmethyl-thiazole]",maximum modulation (Emax),110%
same,EC50,220 nM
"COC1CCCN(C(=O)c2cnc(C#Cc3ccccc3)s2)C1 (stereo not shown) [Example 119, (3-Methoxy-piperidin-1-yl)-(2-phenylethynyl-thiazol-5-yl)-methanone]",maximum modulation (Emax),46%
same,EC50,140 nM
